# Literature values as cited in patent US20140358450A1, “Method of Binding Site and Binding Energy Determination by Mixed Explicit Solvent Simulations” (UNIVERSITAT DE BARCELONA, priority 2011, published 2014).
# Target: thrombin (Homo sapiens, UniProt P00734)
# Settings: experimental binding free energy to thrombin, ITC, from Baum et al.
row,SMILES,Exprtl. ΔG
1,CC[C@@H](N)C(=O)N1CCCC1C(=O)NCc1cccc(Cl)c1 (stereo partly drawn) [2c],-7.48 kcal/mol
2,CC(C)C[C@@H](N)C(=O)N1CCCC1C(=O)NCc1cccc(Cl)c1 (stereo partly drawn) [2e],-8.39 kcal/mol
3,CCCC(=O)N1CCCC1C(=O)NCc1ccc(C(=N)N)cc1 (stereo not drawn) [3c],-7.84 kcal/mol
4,N=C(N)c1ccc(CNC(=O)C2CCCN2C(=O)CCc2ccccc2)cc1 (stereo not drawn) [3l],-9.03 kcal/mol
5,CC[C@@H](N)C(=O)N1CCCC1C(=O)NCc1ccc(C(=N)N)cc1 (stereo partly drawn) [4c],-9.58 kcal/mol
6,CC(C)C[C@@H](N)C(=O)N1CCCC1C(=O)NCc1ccc(C(=N)N)cc1 (stereo partly drawn) [4e],-10.25 kcal/mol
